Measured values published in paper PMC12311729, “Probing the Mechanism of L‑DOPA 2,3-Dioxygenase Using Synthetic Derivatives of 3,4-Dihydroxyhydrocinnamic Acid” (ACS Omega, 2025).
“Also recorded” adds a separate entry of the source.

What was measured:
[1] = Cyclic voltammetry (redox potentials on a GCE); format: physicochemical; settings: for (E p)a Oxidation / (E p)c Reduction / E1/2 / Ipa/Ipc / ΔE p: GCE (d = 2 mm); for E1/2 (mV) at pH 7.4 relative to L-DOPA x 100: percentage of the value for L-DOPA
Text: Reduction and oxidation potentials were experimentally performed by cyclic voltammetry (CV) at biological pH 7.4, as previously described. All samples were run on a CH Instruments 600E Potentiostat in a one-compartment cell equipped with a three-electrode system arrangement. The three-electrode system included a saturated calomel electrode as the reference electrode, a platinum wire as the auxiliary electrode, and a glassy carbon electrode (GCE, d = 2 mm) as the working electrode. The GCE was polished between each sample scan with an aqueous slurry of alumina powder on a microcloth pad. The electrodes were rinsed with distilled water prior to the next scan. All scans were conducted under nitrogen for oxygen displacement and at room temperature (rt, 25 ± 1 °C). All samples were prepared as close to the scan as possible (approximately 2 min each). Each sample (5 mL) contained 0.1 mM catecholic substrate and 1 μM DMSO in 0.1 M phosphate buffer at a pH of 7.4 or 6.0. […] The cyclic voltammograms for the compounds at both pH 6.0 and 7.4 are available in Figures S40–S51.

[2] = Determination of pKa values by spectrophotometric titration; settings: for pK a value: first catecholic deprotonation, determined spectroscopically from pH 3 to 12.5; for Catecholic pKa value relative to L-DOPA x 100: percentage of the value for L-DOPA
[3] = molecular target: L-DOPA 2,3-dioxygenase from S. hygroscopicus jingganensis (ShjDDO) (Streptomyces hygroscopicus, UniProt H2JL11); assay: UV-visible steady-state assay of L-DOPA 2,3-dioxygenase (ShjDDO); format: biochemical; settings: for kSP, O2 (μM^-1 min^-1) at pH 7.5 relative to L-DOPA x 100 for ShjDDO: percentage of the value for L-DOPA; for activity / turnover as substrate: ShjDDO, aerobic reaction observed by UV–visible spectroscopy
Sequence of L-DOPA 2,3-dioxygenase from S. hygroscopicus jingganensis (ShjDDO) (H2JL11 1-162): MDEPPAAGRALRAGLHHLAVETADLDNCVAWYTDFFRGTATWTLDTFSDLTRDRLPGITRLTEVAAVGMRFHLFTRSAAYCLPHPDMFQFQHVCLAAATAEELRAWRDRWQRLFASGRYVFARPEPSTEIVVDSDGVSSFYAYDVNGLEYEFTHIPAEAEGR
Description: (§1) Purified, reconstituted L-DOPA 2,3-dioxygenases were assessed for activity by monitoring the cleavage of catecholic substrates using UV–visible spectroscopy. 3,4-Dihydroxyhydrocinnamic acid (DHHCA, 3) was purchased from Sigma-Aldrich. 6-CyanoDHHCA (5) and 6-bromoDHHCA (4) were synthesized as described above.
(§2) Molecular oxygen (AirGas) was bubbled directly into the reaction buffer through a glass-bonded silica gas diffuser (Bubblemac Industries, Inc.) or as a gas mixture blended with air (AirGas). Solutions were bubbled with oxygen for several minutes prior to use and for the duration of the experiment. To determine the K M for oxygen (i.e., K MO2), L-DOPA 2,3-dioxygenases (0.25–4.0 μM) were reacted with a saturating concentration of the catecholic substrate DHHCA/6-X-DHHCA derivatives (2–10× the K M sufficient to achieve k cat) and various oxygen concentrations (21–100% or 270–1300 μM at 22 °C). The concentration of oxygen was varied by changing the percentage of oxygen in the blend using a galvanic oxygen sensor and oxygen monitor (AirGas) and then bubbling solutions, as described above. Molecular oxygen percentages were converted to molar concentrations using a reference temperature of 22 °C. The reaction of L-DOPA 2,3-dioxygenases with DHHCA/6-X-DHHCA derivatives as a function of oxygen concentration was followed by the appearance of the steady-state cleavage product by using UV–visible spectroscopy.
(§3) The extinction coefficients for steady-state cleavage products of DHHCA and synthetic 6-X-DHHCA derivatives were determined by reacting various concentrations of DHHCA/6-X-DHHCA derivatives at 22 °C with a 10-fold stoichiometric excess of enzyme (quantified by Fe^II–see Reconstitution) in 50 mM HEPES buffer with 154 mM NaCl at pH 7.5, bubbled with 100% oxygen to a final concentration of 780–910 μM, depending on the volume of oxygenated buffer that comprised the reaction (60–70%). Substrate solutions were prepared from authentic synthetic standards using an analytical balance, and reactions were run to completion as assessed by the appearance of the steady-state product. The λmax and extinction coefficients of DHHCA, 6-cyanoDHHCA, and 6-bromoDHHCA were determined herein as ε380 = 40 740 ± 820 M^–1cm^–1, ε385 = 33 256 ± 484 M^–1cm^–1, and ε380 = 35 282 ± 1190 M^–1cm^–1, respectively (Figure S52).
(§4) Steady-state kinetic data were obtained through a UV–visible spectroscopic assay. Initial rates were obtained from the slopes of the linear regions of the progress curves and plotted versus substrate concentration to yield a hyperbola, which was analyzed using the Michaelis–Menten expression and nonlinear least-squares fitting (NLSF) with Origin 6.0 (Microcal). Two possible derivations of the Michaelis–Menten expression were used: 1) the traditional expression y = k cat × x/(K M + x), where y is Rate/E 0 or the rate of product formation (μM/min) divided by the starting enzyme concentration (μM), x is substrate concentration (μM) and k SP (also known as k cat × K M ^–1)–that is, the second-order rate constant of enzyme and substrate–is extracted from the fitted constants; or 2) the alternative derivation that extracts k SP and k cat directly from the fit: y = (k SP × x)/((1 + k SP × x)/k cat), and where y is Rate/E 0 or the rate of product formation (μM/min) divided by the starting enzyme concentration (μM), x is substrate concentration (μM), k SP is equivalent to k cat×K M ^–1, and K M is extracted from k cat/k cat×K M ^–1.

[4] = molecular target: L-DOPA 2,3-dioxygenase from S. lincolnensis (LmbB1) (Streptomyces lincolnensis, UniProt Q54354); assay: UV-visible steady-state assay of L-DOPA 2,3-dioxygenase (LmbB1); format: biochemical; settings: for kSP, O2 (μM^-1 min^-1) at pH 7.5 relative to L-DOPA x 100 for LmbB1: percentage of the value for L-DOPA; for activity / turnover as substrate: aerobic reaction observed by UV–visible spectroscopy
Sequence of L-DOPA 2,3-dioxygenase from S. lincolnensis (LmbB1) (Q54354 entry or part of it): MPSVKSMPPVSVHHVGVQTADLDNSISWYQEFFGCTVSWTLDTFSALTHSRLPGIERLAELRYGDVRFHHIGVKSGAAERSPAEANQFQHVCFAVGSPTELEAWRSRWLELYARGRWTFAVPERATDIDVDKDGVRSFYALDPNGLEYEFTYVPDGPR
Description: as §1, §2, §3, §4

[5] = set-up: method as in Biochemistry 2021, 60, 32, 2492–2507; settings: similarly 6-substituted dopamine; ref Biochemistry 2021, 60, 32, 2492–2507; cited from earlier work
[6] = ShjDDO active site, ratio to DHHCA
[7] = LmbB1 active site, ratio to DHHCA

Row | SMILES | (E p)a Oxidation ([1]; pH 6.0) [mV] | (E p)c Reduction ([1]; pH 6.0) [mV] | E1/2 ([1]; pH 6.0) [mV] | Ipa/Ipc ([1]; pH 6.0) | ΔE p ([1]; pH 6.0) [mV] | (E p)a Oxidation ([1]; pH 7.4) [mV] | pK a value [2] | Catecholic pKa value relative to L-DOPA x 100 [2] [%] | kSP, O2 (μM^-1 min^-1) at pH 7.5 relative to L-DOPA x 100 for ShjDDO [3] [%] | kSP, O2 (μM^-1 min^-1) at pH 7.5 relative to L-DOPA x 100 for LmbB1 [4] [%] | pK a value of dopamine counterpart [5] | E1/2 (mV) at pH 7.4 relative to L-DOPA x 100 [1] [%] | activity / turnover as substrate [3] | activity / turnover as substrate ([4]; LmbB1) | also measured
1 | N[C@@H](Cc1ccc(O)c(O)c1)C(=O)O [L-DOPA (1), L-3,4-dihydroxyphenylalanine] | 362 | 101 | 231.5 | 5.90 | 261 | 315 | 8.81 ± 0.19 | 100 | 100 | 100 |  |  |  |  | 
2 | NCCc1cc(O)c(O)cc1[N+](=O)[O-] [dopamine counterpart of 6-NitroDHHCA (6), 6-nitrodopamine] |  |  |  |  |  |  |  |  |  |  | 6.23 ± 0.03 |  |  |  | 
3 | O=C(O)CCc1cc(O)c(O)cc1Br [6-BromoDHHCA (4), 3-(2-bromo-4,5-dihydroxyphenyl) propanoic acid] | 267 | 154 | 210.5 | 1.43 | 113 | 195 | 8.36 ± 0.07 | 95 | ~11 | 4 |  | 63 | measurable activity | measurable activity | (E p)c Reduction ([1]; pH 7.4): 59 mV; E1/2 ([1]; pH 7.4): 127 mV; Ipa/Ipc ([1]; pH 7.4): 1.21; ΔE p ([1]; pH 7.4): 136 mV; kcat at 22 °C and 100% O2 saturation ([3]; S. hygroscopicus jingganensis enzyme, pH 7.5): 1.5 ± 0.1 sec^–1; kSP,O2 × 10^2 at 22 °C ([3]; S. hygroscopicus jingganensis enzyme, values are kSP × 10^2): 15.8 ± 1.0 μM^–1 min^–1; kSP catechol × 10^2 at 22 °C ([3]; S. hygroscopicus jingganensis enzyme, values are kSP × 10^2, kSP = kcat/KM): 9.8 ± 1.9 μM^–1 min^–1; k SP,O2 compared with DHHCA ([3]; ShjDDO active site): equivalent to DHHCA (3) within error; K M weaker than DHHCA [3, 6]: 2 fold; k cat faster than DHHCA [3, 6]: 2 fold; K M tighter than DHHCA ([4]; LmbB1, ratio to DHHCA): 4.5 fold; k SP,O2 slower than DHHCA [4, 7]: more than 5 fold; k cat slower than DHHCA [4, 7]: more than 10 fold; kcat at 22 °C and 100% O2 saturation ([4]; S. lincolnensis enzyme, pH 7.5): 1.6 × 10^–1 ± 4.6 × 10 ^–3 sec^–1; kSP,O2 × 10^2 at 22 °C ([4]; S. lincolnensis enzyme, values are kSP × 10^2): 3.5 ± 0.5 μM^–1 min^–1; kSP catechol × 10^2 at 22 °C ([4]; S. lincolnensis enzyme, values are kSP × 10^2, kSP = kcat/KM): 4.6 ± 0.5 μM^–1 min^–1
4 | NCCc1cc(O)c(O)cc1Br [Compound 6-bromoDA, 6-bromodopamine, reference compound] |  |  |  |  |  |  |  | 92 | 9 | 27 | 8.09 ± 0.03 | 77 |  |  | 
5 | O=C(O)CCc1cc(O)c(O)cc1[N+](=O)[O-] [6-NitroDHHCA (6), 3-(4,5-dihydroxy-2-nitrophenyl) propanoic acid] | 444 |  |  |  |  | 288 | 6.94 ± 0.06 |  |  |  |  |  | no turnover was detected; also recorded: did not undergo turnover | no turnover was detected; also recorded: did not undergo turnover | 
